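Protocol summary: plate cells (96-well), add compound at 5 concentrations, incubate 48 h, interpolate endpoints linearly. The concentration for 50% growth inhibition is given as GI50. Definition used: TGI = concentration required for complete inhibition of growth.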
How the values were obtained:
Test in all cases: growth of human tumour cells (NCI), 48 h
[1] = tested on: SR leukemia
[2] = tested on: OVCAR-3 ovarian
[3] = tested on: HT29 colon
[4] = tested on: SF-539 CNS
[5] = tested on: ACHN renal
[6] = tested on: UACC-257 melanoma
[7] = tested on: MDA-MB-435
[8] = tested on: A498 renal
[9] = tested on: SNB-75 CNS
[10] = tested on: HL-60(TB) leukemia
[11] = tested on: COLO 205 colon
[12] = tested on: UO-31 renal
[13] = tested on: K-562 leukemia
[14] = tested on: UACC-62 melanoma
[15] = tested on: PC-3 prostate
[16] = tested on: RPMI-8226 leukemia
[17] = tested on: NCI/ADR-RES ovarian
[18] = tested on: LOX IMVI melanoma
[19] = tested on: CCRF-CEM leukemia
[20] = tested on: SNB-19 CNS
[21] = tested on: HCT-15 colon
[22] = tested on: TK-10 renal
[23] = tested on: SK-MEL-28 melanoma
[24] = tested on: OVCAR-5 ovarian
[25] = tested on: 786-0 renal
[26] = tested on: SW-620 colon
[27] = tested on: SN12C renal
[28] = tested on: MOLT-4 leukemia
[29] = tested on: DU-145 prostate
[30] = tested on: EKVX NSCLC
[31] = tested on: NCI-H226 lung
[32] = tested on: T-47D breast
[33] = tested on: U251 CNS
[34] = tested on: HOP-92 NSCLC
[35] = tested on: SK-OV-3 ovarian
[36] = tested on: OVCAR-8 ovarian
[37] = tested on: SF-295 CNS
[38] = tested on: RXF 393 renal
[39] = tested on: HS 578T breast
[40] = tested on: SF-268 CNS
[41] = tested on: NCI-H522 lung
[42] = tested on: BT-549 breast
[43] = tested on: KM12 colon
[44] = tested on: NCI-H23 lung
[45] = tested on: HCT-116 colon
[46] = tested on: HCC-2998 colon
[47] = tested on: MDA-MB-231 breast
[48] = tested on: CAKI-1 renal
[49] = tested on: SK-MEL-2 melanoma
[50] = tested on: SK-MEL-5 melanoma
[51] = tested on: M14 melanoma
[52] = tested on: MCF7 breast
[53] = tested on: OVCAR-4 ovarian
[54] = tested on: IGROV1 ovarian
[55] = tested on: MALME-3M melanoma
[56] = tested on: NCI-H460 lung
[57] = tested on: A549 NSCLC
[58] = tested on: HOP-62 NSCLC

## O=C1Nc2ccc(CN3CCOC3=O)cc2/C1=C/c1cc(CN2CCOCC2)c[nH]1
[1]
  GI50: 7.43 µM
  TGI: 73.9 µM
[2]
  GI50: 47.6 µM
  TGI: > 100 µM
[3]
  GI50: 34.6 µM
  TGI: > 100 µM
[4]
  GI50: 53.9 µM
  TGI: > 100 µM
[5]
  GI50: 56 µM
  TGI: > 100 µM
[6]
  GI50: 52 µM
  TGI: > 100 µM
[7]
  GI50: 18.7 µM
  TGI: > 100 µM
[8]
  GI50: > 45.2 µM
  TGI: > 100 µM
[9]
  GI50: 52.8 µM
  TGI: > 100 µM
[10]
  GI50: 25.1 µM
  TGI: > 80.7 µM
[11]
  GI50: 38.6 µM
  TGI: > 100 µM
[12]
  GI50: 21.5 µM
  TGI: > 94.7 µM
[13]
  GI50: 27.3 µM
  TGI: > 100 µM
[14]
  GI50: 34.4 µM
  TGI: > 100 µM
[15]
  GI50: 36.9 µM
  TGI: > 100 µM
[16]
  GI50: 19.2 µM
  TGI: 53.7 µM
[17]
  GI50: 34.6 µM
  TGI: > 100 µM
[18]
  GI50: 48.4 µM
  TGI: > 100 µM
[19]
  GI50: 35.4 µM
  TGI: > 100 µM
[20]
  GI50: 98.7 µM
  TGI: > 100 µM
[21]
  GI50: 29.4 µM
  TGI: > 100 µM
[22]
  GI50: 65.5 µM
  TGI: > 100 µM
[23]
  GI50: 58 µM
  TGI: > 100 µM
[24]
  GI50: > 100 µM
  TGI: > 100 µM
[25]
  GI50: 62.5 µM
  TGI: > 100 µM
[26]
  GI50: 37.9 µM
  TGI: > 100 µM
[27]
  GI50: 45.4 µM
  TGI: > 100 µM
[28]
  GI50: 28.5 µM
  TGI: 78.7 µM
[29]
  GI50: > 100 µM
  TGI: > 100 µM
[30]
  GI50: 37.5 µM
  TGI: > 100 µM
[31]
  GI50: 28.1 µM
  TGI: > 100 µM
[32]
  GI50: 24.9 µM
  TGI: > 88.3 µM
[33]
  GI50: > 75.6 µM
  TGI: > 100 µM
[34]
  GI50: 32 µM
  TGI: > 92.3 µM
[35]
  GI50: 98.9 µM
  TGI: > 100 µM
[36]
  GI50: 33.7 µM
  TGI: > 100 µM
[37]
  GI50: 2.16 µM
  TGI: > 100 µM
[38]
  GI50: 18.3 µM
  TGI: > 72.3 µM
[39]
  GI50: > 69.8 µM
  TGI: > 100 µM
[40]
  GI50: > 86.5 µM
  TGI: > 100 µM
[41]
  GI50: 36.1 µM
  TGI: > 100 µM
[42]
  GI50: 23.5 µM
  TGI: > 79.5 µM
[43]
  GI50: 4.08 µM
  TGI: > 100 µM
[44]
  GI50: 32.5 µM
  TGI: > 100 µM
[45]
  GI50: 37.2 µM
  TGI: > 100 µM
[46]
  GI50: 61 µM
  TGI: > 100 µM
[47]
  GI50: 78.8 µM
  TGI: > 100 µM
[48]
  GI50: 26.3 µM
  TGI: > 100 µM
[49]
  GI50: 39.2 µM
  TGI: > 100 µM
[50]
  GI50: 19.5 µM
  TGI: 43.5 µM
[51]
  GI50: 34 µM
  TGI: > 93.9 µM
[52]
  GI50: 24.1 µM
  TGI: > 91.9 µM
[53]
  GI50: 26.6 µM
  TGI: > 100 µM
[54]
  GI50: 50.6 µM
  TGI: > 100 µM
[55]
  GI50: > 71.5 µM
  TGI: > 100 µM
[56]
  GI50: 36.2 µM
  TGI: > 100 µM
[57]
  GI50: 49.7 µM
  TGI: > 100 µM
[58]
  GI50: 42.7 µM
  TGI: > 100 µM

## C=C1C(=O)O[C@H]2[C@H]1CC/C(COC(=O)C(=O)c1c[nH]c3ccc(Cl)cc13)=C\CC[C@@]1(C)O[C@@H]21
[1]
  GI50: 0.342 µM
  TGI: 12.2 µM
[2]
  GI50: 0.52 µM
  TGI: 2.01 µM
[3]
  GI50: 0.781 µM
  TGI: 3.01 µM
[4]
  GI50: 1.74 µM
  TGI: 3.32 µM
[5]
  GI50: 1.32 µM
  TGI: 2.7 µM
[6]
  GI50: 2 µM
  TGI: 4.13 µM
[7]
  GI50: 1.8 µM
  TGI: 4.23 µM
[8]
  GI50: 2.75 µM
  TGI: 5.54 µM
[9]
  GI50: 1.48 µM
  TGI: 3.87 µM
[10]
  GI50: 1.91 µM
  TGI: 5.09 µM
[11]
  GI50: 2.12 µM
  TGI: 4.58 µM
[12]
  GI50: 1.22 µM
  TGI: 2.53 µM
[13]
  GI50: 1.58 µM
  TGI: 6.18 µM
[14]
  GI50: 1.28 µM
  TGI: 3.54 µM
[15]
  GI50: 1.76 µM
  TGI: 3.57 µM
[16]
  GI50: 0.422 µM
  TGI: 3.29 µM
[17]
  GI50: 1.94 µM
  TGI: 4.94 µM
[18]
  GI50: 0.183 µM
  TGI: 0.396 µM
[19]
  GI50: 0.375 µM
  TGI: 10.1 µM
[20]
  GI50: 3.22 µM
  TGI: 10.8 µM
[21]
  GI50: 0.382 µM
  TGI: 1.63 µM
[22]
  GI50: 1.73 µM
  TGI: 3.2 µM
[23]
  GI50: 1.88 µM
  TGI: 3.92 µM
[24]
  GI50: 2.1 µM
  TGI: 5.17 µM
[25]
  GI50: 1.53 µM
  TGI: 2.93 µM
[26]
  GI50: 1.67 µM
  TGI: 10.3 µM
[27]
  GI50: 1.84 µM
  TGI: 4.17 µM
[28]
  GI50: 0.778 µM
  TGI: 5.47 µM
[29]
  GI50: 1.9 µM
  TGI: 4.13 µM
[30]
  GI50: 2.06 µM
  TGI: 5.03 µM
[31]
  GI50: 1.74 µM
  TGI: 3.31 µM
[32]
  GI50: 1.62 µM
  TGI: 3.77 µM
[33]
  GI50: 1.9 µM
  TGI: 3.45 µM
[34]
  GI50: 1.86 µM
  TGI: 3.42 µM
[35]
  GI50: 11.6 µM
  TGI: 24.1 µM
[36]
  GI50: 2.32 µM
  TGI: 6.82 µM
[37]
  GI50: 5.77 µM
  TGI: 18.6 µM
[38]
  GI50: 1.4 µM
  TGI: 2.79 µM
[39]
  GI50: 3.52 µM
  TGI: 29.4 µM
[40]
  GI50: 1.73 µM
  TGI: 3.97 µM
[41]
  GI50: 1.53 µM
  TGI: 3.24 µM
[42]
  GI50: 1.38 µM
  TGI: 3.19 µM
[43]
  GI50: 3.21 µM
  TGI: 11.6 µM
[44]
  GI50: 1.65 µM
  TGI: 3.31 µM
[45]
  GI50: 1.65 µM
  TGI: 3.23 µM
[46]
  GI50: 1.8 µM
  TGI: 3.36 µM
[47]
  GI50: 1.84 µM
  TGI: 4.03 µM
[48]
  GI50: 2.81 µM
  TGI: 10.9 µM
[49]
  GI50: 1.94 µM
  TGI: 4.23 µM
[50]
  GI50: 1.86 µM
  TGI: 3.41 µM
[51]
  GI50: 1.59 µM
  TGI: 3.62 µM
[52]
  GI50: 0.779 µM
  TGI: 4.27 µM
[53]
  GI50: 2.34 µM
  TGI: 7.03 µM
[54]
  GI50: 1.63 µM
  TGI: 3.32 µM
[55]
  GI50: 1.74 µM
  TGI: 3.47 µM
[56]
  GI50: 2.45 µM
  TGI: 5.93 µM
[57]
  GI50: 2.52 µM
  TGI: 6.03 µM
[58]
  GI50: 1.63 µM
  TGI: 3.66 µM

Source: PubChem BioAssay (NCI)
